Measured values reported in patent publication US9650339B2, “Inhibitors of histone demethylases” (Gilead Sciences, Inc., priority 2013, dated 2017).

What was measured:
KDM4C (JMJD2C) = target: T1, KDM4C (JMJD2C) (Homo sapiens, UniProt Q9H3R0); assay: Histone lysine demethylase AlphaLISA assay, KDM4C; type: biochemical; conditions: read-out: KDM4C HDME Inhibition IC50
T1 sequence (Q9H3R0 1-349): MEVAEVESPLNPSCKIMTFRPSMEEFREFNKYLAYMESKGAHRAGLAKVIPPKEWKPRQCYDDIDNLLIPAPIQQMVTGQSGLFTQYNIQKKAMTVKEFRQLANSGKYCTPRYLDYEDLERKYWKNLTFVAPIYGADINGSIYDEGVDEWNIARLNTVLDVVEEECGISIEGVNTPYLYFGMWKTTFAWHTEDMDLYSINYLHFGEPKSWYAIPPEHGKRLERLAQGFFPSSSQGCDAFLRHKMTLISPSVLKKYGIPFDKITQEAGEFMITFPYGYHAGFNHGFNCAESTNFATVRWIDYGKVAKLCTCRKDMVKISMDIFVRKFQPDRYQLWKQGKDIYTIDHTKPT
How it was run: (§1)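 Biotinylated methylated H3 peptides (K9, K4, K27 or K36 marks) served as substrate, with 25 μM L-Asc and 10 μM α-KG. Enzymes were preincubated 10 min, then exposed to compounds (3% DMSO solutions) 10 min; product detected by AlphaLISA acceptor and streptavidin donor beads at room temperature in dark.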

KDM6A (UTX) = KDM6A (UTX) (Homo sapiens, UniProt O15550); assay: Histone lysine demethylase AlphaLISA assay, KDM6A; type: biochemical; conditions: read-out: KDM6A HDME Inhibition IC50
How it was run: as §1

KDM5B = target: T2, KDM5B (Homo sapiens, UniProt Q9UGL1); assay: Histone lysine demethylase immunofluorescence assay, U2OS cells transfected with KDM5B; type: cell-based; conditions: U2OS cells transfected with pCMVHA KDM5B; mark detected H3K4me2; 20 hours
T2 construct: (a.a. 1-752); host or cells: U2OS
T2 sequence (Q9UGL1 1-752): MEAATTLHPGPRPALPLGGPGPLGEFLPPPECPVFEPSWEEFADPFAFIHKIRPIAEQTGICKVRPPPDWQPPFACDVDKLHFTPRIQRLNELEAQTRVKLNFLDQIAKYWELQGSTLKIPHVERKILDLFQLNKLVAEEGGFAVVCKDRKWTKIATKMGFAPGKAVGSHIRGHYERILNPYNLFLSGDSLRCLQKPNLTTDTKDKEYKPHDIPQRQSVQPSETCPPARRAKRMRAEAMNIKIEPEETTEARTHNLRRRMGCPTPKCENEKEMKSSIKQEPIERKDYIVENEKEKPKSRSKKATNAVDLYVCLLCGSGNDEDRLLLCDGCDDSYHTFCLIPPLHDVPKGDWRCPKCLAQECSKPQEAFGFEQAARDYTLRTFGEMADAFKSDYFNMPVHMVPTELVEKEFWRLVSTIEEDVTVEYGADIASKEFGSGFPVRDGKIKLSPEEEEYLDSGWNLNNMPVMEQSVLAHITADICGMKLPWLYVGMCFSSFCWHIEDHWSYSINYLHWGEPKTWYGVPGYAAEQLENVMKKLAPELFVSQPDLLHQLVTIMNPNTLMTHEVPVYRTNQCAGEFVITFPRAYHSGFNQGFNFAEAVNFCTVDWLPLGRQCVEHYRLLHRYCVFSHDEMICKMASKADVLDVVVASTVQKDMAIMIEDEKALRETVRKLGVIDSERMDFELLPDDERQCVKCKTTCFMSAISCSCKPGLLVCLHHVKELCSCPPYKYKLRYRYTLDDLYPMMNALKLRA
How it was run: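 U2OS cells were transiently transfected with HA-tagged demethylase and reseeded after 6 h into compound-containing DMEM/10% FBS for 20 h. Cells were fixed in formaldehyde and immunostained for HA and the relevant histone methyl mark, then imaged. IC50 is based on mean mark staining in HA+ transfected cells.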

KDM6A (UTX), sequence (O15550 919-1401): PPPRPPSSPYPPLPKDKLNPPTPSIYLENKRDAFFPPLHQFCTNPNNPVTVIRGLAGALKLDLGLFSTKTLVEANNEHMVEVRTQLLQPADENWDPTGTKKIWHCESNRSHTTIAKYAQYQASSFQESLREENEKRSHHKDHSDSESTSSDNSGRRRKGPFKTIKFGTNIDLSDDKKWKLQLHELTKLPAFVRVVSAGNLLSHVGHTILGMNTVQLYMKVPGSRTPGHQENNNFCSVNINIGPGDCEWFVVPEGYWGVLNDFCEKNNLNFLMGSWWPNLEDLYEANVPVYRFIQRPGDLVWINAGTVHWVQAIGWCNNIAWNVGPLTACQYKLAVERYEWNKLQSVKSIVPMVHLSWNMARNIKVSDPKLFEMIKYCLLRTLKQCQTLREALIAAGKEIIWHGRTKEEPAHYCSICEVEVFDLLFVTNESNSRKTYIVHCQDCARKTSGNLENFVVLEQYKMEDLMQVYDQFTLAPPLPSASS

SMILES	IC50 (KDM4C (JMJD2C)) [nM]	IC50 (KDM6A (UTX)) [nM]	IC50 (KDM5B) [nM]
CN(C)C/C=C/CNCc1cc(C=O)ccn1 [Compound 98, 2-({[(2E)-4-(dimethylamino)but-2-en-1-yl]amino}-methyl)pyridine-4-carbaldehyde]	250 to 2500	> 2500	< 250
CN(C)C/C=C\CNCc1cc(C=O)ccn1 [Compound 99, 2-({[(2Z)-4-(dimethylamino)-but-2-en-1-yl]amino}methyl)-pyridine-4-carbaldehyde]	> 2500	> 2500	> 2500
CN1CCC(CNCc2cc(C=O)ccn2)CC1 [Compound 100, 2-({[(1-methyl-piperidin-4-yl)methyl]amino}-methyl)pyridine-4-carbaldehyde]	> 2500	> 2500	< 250
CCN(CCN(C)C)C(=O)CNCc1cc(C=O)ccn1 [Compound 101]	< 250	> 2500	< 250
O=Cc1ccnc(CNCC(=O)N2CCC[C@@H]2CN2CCCC2)c1 [Compound 102, 2-[({2-oxo-2-[(2R)-2-(pyrrolidin-1-ylmethyl)pyrrolidin-1-yl]ethyl}amino)-methyl]pyridine-4-carbaldehyde]	< 250	> 2500	250 to 2500
CN1CCN(C(=O)CNCc2cc(C=O)ccn2)CC1 [Compound 103, 2-({[2-(4-methylpiperazin-1-yl)-2-oxoethyl]-amino}methyl)-pyridine-4-carbaldehyde]	> 2500	> 2500	250 to 2500
CCN1CCCC1CNC(=O)CNCc1cc(C=O)ccn1 (stereo not drawn) [Compound 104, N-[(1-ethylpyrrolidin-2-yl)methyl]-2-{[(4-formylpyridin-2-yl)methyl]amino}-acetamide]	250 to 2500	> 2500	250 to 2500
CCN(CC)C(=O)CNCc1cc(C=O)ccn1 [Compound 105, N,N-diethyl-2-{[(4-formylpyridin-2-yl)methyl]amino}-acetamide]	> 2500	> 2500	250 to 2500
O=Cc1ccnc(CNCC(=O)N2CCC(Cc3ccccc3)CC2)c1 [Compound 106, 2-({[2-(4-benzylpiperidin-1-yl)-2-oxoethyl]-amino}methyl)-pyridine-4-carbaldehyde]	250 to 2500	> 2500	> 2500
CCN(CC)CCCCNCc1cc(C=O)ccn1 [Compound 107, 2-({[4-(diethylamino)-butyl]amino}-methyl)pyridine-4-carbaldehyde]	> 2500	> 2500	< 250
CN(C)CCCCNCc1cc(C=O)ccn1 [Compound 108, 2-({[4-(dimethylamino)-butyl]amino}methyl)-pyridine-4-carbaldehyde]	> 2500	> 2500	< 250
CN(C)CCNCc1cc(C=O)ccn1 [Compound 110, 2-({[2-(dimethylamino)-ethyl]amino}methyl)-pyridine-4-carbaldehyde]	> 2500	> 2500	250 to 2500
O=Cc1ccnc(CNCCCN2CCCC2)c1 [Compound 111, 2-({[3-(pyrrolidin-1-yl)propyl]amino}-methyl)pyridine-4-carbaldehyde]	> 2500	> 2500	< 250
CCN(CC)CCCCNC(=O)CNCc1cc(C=O)ccn1 [Compound 112, N-[4-(diethylamino)-butyl]-2-{[(4-formylpyridin-2-yl)methyl]amino}-acetamide]	250 to 2500	> 2500	> 2500
CCN(CC)CCCCN(Cc1cc(C=O)ccn1)C(=O)C(F)(F)F [Compound 115, N-[4-(diethylamino)butyl]-2,2,2-trifluoro-N-[(4-formylpyridin-2-yl)methyl]acetamide]	> 2500	> 2500	< 250
CCN(CC(C)(C)N(C)C)C(=O)CNCc1cc(C=O)ccn1 [Compound 118, N-[2-(dimethylamino)-2-methylpropyl]-N-ethyl-2-{[(4-formylpyridin-2-yl)methyl]amino}-acetamide]	< 250	> 2500	< 250
CN(CC(=O)N1CCCCC1)Cc1cc(C=O)ccn1 [Compound 120, 2-({methyl[2-oxo-2-(piperidin-1-yl)ethyl]amino}-methyl)pyridine-4-carbaldehyde]	> 2500	> 2500	> 2500
